According to US20250026766A1, “Thiazolopyridyl Amide Derivatives as DNA Polymerase Theta Inhibitors” (BeiGene, Ltd., priority 2022, published 2025):

Molecular target: Pol Theta (1-894) (Homo sapiens (Human), UniProt O75417)
Assay: Biochemical Pol Theta (1-894) ATPase IC50 assay (ADP-Glo, ssDNA substrate)
Conditions: ADP-Glo assay with ssDNA substrate, room temperature
Description: Baculovirus Expression of Human POL theta (1-894)
Human POL Theta (1-894)-His-pFastBac1 baculovirus samples were generated using the Bac-to-Bac baculovirus expression system (Invitrogen) according to the manufacturer's protocol. […] Baculovirus amplification was achieved using infected SF9 cells at 1:2000 virus/cells ratios, and grown for 96 hours at 27° C. post-transfection. The expression scaled up for each protein was carried out in the flask 3 L from CORNING. 4 L of 3×10^6 cells/mL Sf9 cells (Expression System, Invitrogen) grown in SF900TM II SFM insect medium (Expression System) were infected with virus stock at 1:200 virus/cell ratios, and grown for 48 hours at 27° C. post-transfection. The infected cell culture was harvested by centrifugation at 6000 rpm for 15 min 4° C. in a SORVALL LYNX6000 centrifuge. The cell pellets were stored at −80° C.
The human POL Theta (1-894)-His produced as described above, were purified from Sf9 baculovirus-infected insect cell paste. The cells were lysed using sonication method, and the lysates were clarified by centrifugation.
Enzymatic reactions of Pol Theta (1-894) were performed using ADP-Glo assay with ssDNA substrate. Pol Theta (1-894) was expressed in baculovirus expression system. The inhibition activities testing for the compound disclosed herein were carried out at room temperature in assay buffer containing 40 mM Tris pH 7.5, 20 mM MgCl2, 1 mM DTT, 0.01% BSA and 0.05% Tween-20. Compounds in DMSO were dispensed into wells of a black 384 well plate (Corning 4514) using D300e digital dispenser (Tecan). The ranges of compounds final concentration were 2.62 nM˜10000 nM. 3 μL 2× enzyme solution containing 12.5 nM enzyme was added to wells. […] After 1 hour reaction, 5 μL ADP-Glo reagent (Promga V9102) was added and incubated for 40 minutes. 10 μL Kinase Detection reagent was added and incubated for 40 minutes. Luminescence was measured on a microplate reader (PHERAstar FSX, BMG labtech). The IC50 values were calculated based on inhibition of enzyme activity in the presence of increasing concentrations of compounds.

Pol Theta (1-894), sequence (O75417 1-894): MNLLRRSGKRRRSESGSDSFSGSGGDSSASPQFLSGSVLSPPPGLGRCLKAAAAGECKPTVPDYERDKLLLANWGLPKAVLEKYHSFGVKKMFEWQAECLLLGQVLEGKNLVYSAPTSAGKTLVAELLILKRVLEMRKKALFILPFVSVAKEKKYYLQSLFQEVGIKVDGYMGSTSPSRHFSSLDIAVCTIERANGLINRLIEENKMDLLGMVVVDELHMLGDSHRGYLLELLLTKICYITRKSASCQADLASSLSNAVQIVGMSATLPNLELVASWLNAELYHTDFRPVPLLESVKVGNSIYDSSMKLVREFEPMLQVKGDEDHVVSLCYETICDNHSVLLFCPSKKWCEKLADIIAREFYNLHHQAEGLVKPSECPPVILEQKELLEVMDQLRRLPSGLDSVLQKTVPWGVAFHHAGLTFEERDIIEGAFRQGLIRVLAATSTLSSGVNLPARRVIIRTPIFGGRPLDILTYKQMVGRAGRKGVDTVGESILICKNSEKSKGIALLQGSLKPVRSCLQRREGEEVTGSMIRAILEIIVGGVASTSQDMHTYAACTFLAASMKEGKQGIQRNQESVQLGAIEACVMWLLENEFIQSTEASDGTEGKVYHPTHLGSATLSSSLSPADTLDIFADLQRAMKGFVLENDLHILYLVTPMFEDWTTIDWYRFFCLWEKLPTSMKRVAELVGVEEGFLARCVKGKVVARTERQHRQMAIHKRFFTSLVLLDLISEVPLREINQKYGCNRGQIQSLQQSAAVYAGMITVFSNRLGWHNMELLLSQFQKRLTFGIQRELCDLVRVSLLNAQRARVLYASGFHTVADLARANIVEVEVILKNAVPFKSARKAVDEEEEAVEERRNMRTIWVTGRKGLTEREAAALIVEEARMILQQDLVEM

| Compound | IC50 [nM] |
| --- | --- |
| COc1ccc(C#N)cc1-c1cc(C)ncc1C(=O)Nc1nc2ccc(-c3ccc(C(=O)N4CCCC4)cc3)nc2s1 [Example 85, 4-(5-cyano-2-methoxyphenyl)-6-methyl-N-(5-(4-(pyrrolidine-1-carbonyl)phenyl)thiazolo[5,4-b]pyridin-2-yl)nicotinamide] | 62 |
| COc1cccc(C#N)c1-c1cc(C)ncc1C(=O)Nc1nc2ccc(-c3ccc(C#N)cc3)nc2s1 [Example 153, 4-(2-cyano-6-methoxyphenyl)-N-(5-(4-cyanophenyl)thiazolo[5,4-b]pyridin-2-yl)-6-methylnicotinamide] | 57 |
| COc1ccccc1-c1cnncc1C(=O)Nc1nc2ccc(-c3ccc(Cl)cc3C(F)(F)F)nc2s1 [Example 99, N-(5-(4-chloro-2-(trifluoromethyl)phenyl)thiazolo[5,4-b]pyridin-2-yl)-5-(2-methoxyphenyl)pyridazine-4-carboxamide] | 66 |
| Cc1cc(-c2cc(C#N)c(=O)n(C)c2C)c(C(=O)Nc2nc3ccc(-c4ccc(C#N)cc4)nc3s2)cn1 [Example 173, 5-cyano-N-(5-(4-cyanophenyl)thiazolo[5,4-b]pyridin-2-yl)-1,2,6′-trimethyl-6-oxo-1,6-dihydro-[3,4′-bipyridine]-3′-carboxamide] | 26 |
| COc1ccc(C#N)cc1-c1cc(C)ncc1C(=O)Nc1nc2ccc(-c3ccc(N4C(=O)COC4=O)c(C)c3)nc2s1 [Example 163, 4-(5-cyano-2-methoxyphenyl)-N-(5-(4-(2,4-dioxooxazolidin-3-yl)-3-methylphenyl)thiazolo[5,4-b]pyridin-2-yl)-6-methylnicotinamide] | 28 |
| COc1ccc(C#N)cc1-c1cc(C(F)(F)F)ncc1C(=O)Nc1nc2ccc(-c3ccc(C#N)cc3)nc2s1 [Example 37, 4-(5-cyano-2-methoxyphenyl)-N-(5-(4-cyanophenyl)thiazolo[5,4-b]pyridin-2-yl)-6-(trifluoromethyl)nicotinamide] | 151 |

The remaining compounds from weak to strong by IC50, led by results:

| IC50 [nM] | Compound |
| --- | --- |
| 371 | COc1cccc(C)c1-c1cc(C)ncc1C(=O)Nc1nc2ccc(-c3ccc(C#N)cc3)nc2s1 [Example 87, N-(5-(4-cyanophenyl)thiazolo[5,4-b]pyridin-2-yl)-4-(2-methoxy-6-methylphenyl)-6-methylnicotinamide] |
| 60 | COc1ccccc1-c1cnncc1C(=O)Nc1nc2ccc(C(=O)NCCO)nc2s1 [Example 112, N-(2-hydroxyethyl)-2-(5-(2-methoxyphenyl)pyridazine-4-carboxamido)thiazolo[5,4-b]pyridine-5-carboxamide] |
| 44 | COc1ccccc1-c1cnncc1C(=O)Nc1nc2ccc(C(=O)N3CCOCC3)nc2s1 [Example 124, 5-(2-methoxyphenyl)-N-(5-(morpholine-4-carbonyl)thiazolo[5,4-b]pyridin-2-yl)pyridazine-4-carboxamide] |
| 24 | COc1ccccc1-c1cnncc1C(=O)Nc1nc2ccc(CCc3ccc(Cl)cc3)nc2s1 [Example 62, N-(5-(4-chlorophenethyl)thiazolo[5,4-b]pyridin-2-yl)-5-(2-methoxyphenyl)pyridazine-4-carboxamide] |
| 11 | COc1ccc(C#N)cc1-c1ccncc1C(=O)Nc1nc2ccc(-c3ccc(C#N)cc3)nc2s1 [Example 38, 4-(5-cyano-2-methoxyphenyl)-N-(5-(4-cyanophenyl)thiazolo[5,4-b]pyridin-2-yl)nicotinamide] |
| 11 | COc1ccc(C#N)cc1-c1cc(C)ncc1C(=O)Nc1nc2ccc(-c3ccc(CN4CCCC4=O)cc3C)nc2s1 [Example 174, 4-(5-cyano-2-methoxyphenyl)-6-methyl-N-(5-(2-methyl-4-((2-oxopyrrolidin-1-yl)methyl)phenyl)thiazolo[5,4-b]pyridin-2-yl)nicotinamide] |
| 7.9 | Cc1cc(-c2ccc(=O)n(C)c2C)c(C(=O)Nc2nc3ccc(-c4ccc(C#N)cc4)nc3s2)cn1 [Example 120, N-(5-(4-cyanophenyl)thiazolo[5,4-b]pyridin-2-yl)-1,2,6′-trimethyl-6-oxo-1,6-dihydro-[3,4′-bipyridine]-3′-carboxamide] |
